From patent US20090312407A1, “Synthetic Flavonoids and Pharmaceutical Compositions and Therapeutic Methods of Treatment of Cancer and other Pathologies” (priority 2007, published 2009)
“And” between values parts separate entries of the source, which are not always exact repeats. Equal values may be shown once. Read-outs that look alike come from different tables or passages of the source.

How the values were obtained:
[1] = system: benzodiazepine receptor; conditions: cited from earlier work
[2] = attributed to 3-OH group; cited from earlier work
[3] = system: multidrug resistant cells; conditions: collateral sensitivity; cited from earlier work
[4] = system: PC-3 cells; assay: Cytotoxicity on PC-3 cells; assay type: cell-based; conditions: PC-3 cells; same conditions as AZT
Source text: (§1) The purified and identified analogs were subjected to in vitro biological testing.

[5] = system: MCF-7 cells; assay: Cytotoxicity on MCF-7 cells; assay type: cell-based; conditions: for Cells (×10^4) Mean / Cells (×10^4): Table 17, 12-12 to 12-16/2005; for % Inhibition / inhibition at 1 µg/mL / inhibition at 5 µg/mL / inhibition at 10 µg/mL / inhibition at 50 µg/mL: vs 2% DMSO, Table 17; for inhibition at 1 µg/mL / inhibition at 5 µg/mL / inhibition at 10 µg/mL / inhibition at 50 µg/mL: Homo sapiens; for inhibition at 1 µg/mL: MCF7, 1 μg/ml; for inhibition at 5 µg/mL: MCF7, 5 μg/ml; for inhibition at 10 µg/mL: MCF7, 10 μg/ml; for inhibition at 50 µg/mL: MCF7, 50 μg/ml
[6] = system: H-9 cells; assay: Cytotoxicity on H-9 cells; assay type: cell-based; conditions: H-9 cells; same conditions as AZT
Source text: as §1
These three congeners were further evaluated in H9 and PC3 cells. AZT was employed as a positive control in all of these experiments.

[7] = single count, read-out: % Inhibition

O=c1cc(-c2ccccc2)oc2ccc(Br)cc12 [6-bromoflavone]
activity as benzodiazepine receptor ligand compared to diazepam [1]: close or higher than that of diazepam

O=c1c(O)c(-c2ccc(O)c(O)c2)oc2cc(O)cc(O)c12 [quercetin]
mutagenic properties [2]: some mutagenic properties

O=c1cc(-c2ccccc2)oc2ccc3ccccc3c12 [β-naphthoflavone]
toxicity to multidrug resistant cells vs drug-sensitive counterparts [3]: considerably more toxic to multidrug resistant cells than to their drug-sensitive counterparts

COc1cc(C=CC(=O)c2cc(C)cc([N+](=O)[O-])c2O)cc(OC)c1OC (stereo in doubt) [CHNM 3M]
inhibitory activity / growth inhibition compared to AZT [4]: much superior | Cells (×10^4) Mean ([5]; 1 μg/ml): 44.50 ×10^4 | % Inhibition ([5]; 1 μg/ml, single count): 11.62% | Cells (×10^4) ([5]; 1 μg/ml, single count): 44.3 ×10^4 and 45.0 ×10^4 | Cells (×10^4) Mean ([5]; 5 μg/ml): 24.75 ×10^4 | % Inhibition ([5]; 5 μg/ml, single count): 52.86% and 51.88% | Cells (×10^4) ([5]; 5 μg/ml, single count): 25.8 ×10^4 and 24.0 ×10^4 and 24.5 ×10^4 | Cells (×10^4) Mean ([5]; 10 μg/ml): 4.92 ×10^4 | % Inhibition ([5]; 10 μg/ml, single count): 90.67% | Cells (×10^4) ([5]; 10 μg/ml, single count): 5.0 ×10^4 and 4.8 ×10^4 | Cells (×10^4) Mean ([5]; 50 μg/ml): 1.75 ×10^4 | % Inhibition ([5]; 50 μg/ml, single count): 96.07% and 97.05% | Cells (×10^4) ([5]; 50 μg/ml, single count): 1.8 ×10^4 and 2.0 ×10^4 and 1.5 ×10^4 | inhibition at 1 µg/mL [5, 7]: 13.1% | inhibition at 1 µg/mL ([5]; read-out: % Inhibition Mean): 12.6% | inhibition at 5 µg/mL [5, 7]: 49.4% | inhibition at 5 µg/mL ([5]; read-out: % Inhibition Mean): 51.4% | inhibition at 10 µg/mL [5, 7]: 90.2% | inhibition at 10 µg/mL ([5]; read-out: % Inhibition Mean): 90.3% | inhibition at 50 µg/mL [5, 7]: 96.6% | inhibition at 50 µg/mL ([5]; read-out: % Inhibition Mean): 96.6% | inhibitory activity / growth inhibition compared to AZT ([5]; MCF-7 cells, same conditions as AZT): much superior | cytotoxic activities on MCF-7 cells ([5]; different drug concentrations): good cytotoxic activities | inhibitory activity / growth inhibition compared to AZT [6]: much superior

O=c1cc(-c2cccc([N+](=O)[O-])c2)oc2ccc(Br)cc12 [6-bromo-3′-nitroflavone]
activity as benzodiazepine receptor ligand compared to diazepam [1]: close or higher than that of diazepam
